Assays:
Test in all cases: relative viability (nuclei count vs DMSO), 5 days (fraction); higher = more cells survive
NCI-H647 = tested on: NCI-H647
Summary of the method: (§1)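 Relative viability divides the nuclei count in treated wells by that in vehicle wells. Lung cancer cell lines were seeded in 1536-well plates, dosed by pin tool the next day, and fixed and stained after 5 days in one step with final 0.05% Triton X-100, 1% formaldehyde and 1 ug/ml Hoechst. Dosing was a single drug or a fixed anchor-drug dose plus five library-drug doses (not always all listed) in √10 steps, and values are medians of duplicate plates imaged at 4×.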

NCI-H358 = tested on: NCI-H358
Summary of the method: as §1

EPLC-272H = tested on: EPLC-272H
Summary of the method: as §1

A-427 = tested on: A-427
Summary of the method: as §1

LK-2 = tested on: LK-2
Summary of the method: as §1

NCI-H460 = tested on: NCI-H460
Summary of the method: as §1

NCI-H2405 = tested on: NCI-H2405
Summary of the method: as §1

NCI-H1755 = tested on: NCI-H1755
Summary of the method: as §1

RERF-LC-KJ = tested on: RERF-LC-KJ
Summary of the method: as §1

SW 900 = tested on: SW 900
Summary of the method: as §1

NCI-H1734 = tested on: NCI-H1734
Summary of the method: as §1

LU99A = tested on: LU99A
Summary of the method: as §1

ChaGo-K-1 = tested on: ChaGo-K-1
Summary of the method: as §1

EMC-BAC-2 = tested on: EMC-BAC-2
Summary of the method: as §1

HCC-44 = tested on: HCC-44
Summary of the method: as §1

NCI-H596 = tested on: NCI-H596
Summary of the method: as §1

NCI-H1792 = tested on: NCI-H1792
Summary of the method: as §1

NCI-H1993 = tested on: NCI-H1993
Summary of the method: as §1

NCI-H522 = tested on: NCI-H522
Summary of the method: as §1

EKVX = tested on: EKVX
Summary of the method: as §1

HARA = tested on: HARA
Summary of the method: as §1

Question: Which relative viability (NCI-H647; first compound 0.001 µM) does the source give for Cc1cn(-c2cc(NC(=O)c3ccc(C)c(Nc4nccc(-c5cccnc5)n4)c3)cc(C(F)(F)F)c2)cn1 [Nilotinib] + NC(=O)Nc1cc(-c2cccc(F)c2)sc1C(=O)N[C@H]1CCCNC1 [AZD7762] (partner 0.2 µM) here?
Answer: 0.477

Question: And the relative viability (NCI-H647; first compound 0.003162 µM)?
Answer: 0.41

Question: What about the relative viability (NCI-H647; first compound 0.01 µM) of the same compound?
Answer: 0.359

Question: And the relative viability (NCI-H647; first compound 0.03162 µM)?
Answer: 0.285

Question: And the relative viability (NCI-H647; first compound 0.1 µM)?
Answer: 0.341

Question: What about the relative viability (NCI-H358; first compound 0.001 µM) of the same compound?
Answer: 0.458

Question: And the relative viability (NCI-H358; first compound 0.003162 µM)?
Answer: 0.539

Question: And the relative viability (NCI-H358; first compound 0.01 µM)?
Answer: 0.556

Question: And the relative viability (NCI-H358; first compound 0.03162 µM)?
Answer: 0.459

Question: And the relative viability (NCI-H358; first compound 0.1 µM)?
Answer: 0.523

Question: What about the relative viability (EPLC-272H; first compound 0.001 µM) of the same compound?
Answer: 0.267

Question: What about the relative viability (EPLC-272H; first compound 0.003162 µM) of the same compound?
Answer: 0.13

Question: What about the relative viability (EPLC-272H; first compound 0.01 µM) of the same compound?
Answer: 0.164

Question: What about the relative viability (EPLC-272H; first compound 0.03162 µM) of the same compound?
Answer: 0.186

Question: What about the relative viability (EPLC-272H; first compound 0.1 µM) of the same compound?
Answer: 0.198

Question: And the relative viability (A-427; first compound 0.001 µM)?
Answer: 0.716

Question: What about the relative viability (A-427; first compound 0.003162 µM) of the same compound?
Answer: 0.501

Question: What about the relative viability (A-427; first compound 0.01 µM) of the same compound?
Answer: 0.681

Question: What about the relative viability (A-427; first compound 0.03162 µM) of the same compound?
Answer: 0.535

Question: And the relative viability (A-427; first compound 0.1 µM)?
Answer: 0.338

Question: What about the relative viability (LK-2; first compound 0.001 µM) of the same compound?
Answer: 0.349

Question: And the relative viability (LK-2; first compound 0.003162 µM)?
Answer: 0.447

Question: What about the relative viability (LK-2; first compound 0.01 µM) of the same compound?
Answer: 0.47

Question: And the relative viability (LK-2; first compound 0.03162 µM)?
Answer: 0.382

Question: What about the relative viability (LK-2; first compound 0.1 µM) of the same compound?
Answer: 0.514

Question: What about the relative viability (NCI-H460; first compound 0.001 µM) of the same compound?
Answer: 0.549

Question: What about the relative viability (NCI-H460; first compound 0.003162 µM) of the same compound?
Answer: 0.603

Question: And the relative viability (NCI-H460; first compound 0.01 µM)?
Answer: 0.389

Question: What about the relative viability (NCI-H460; first compound 0.03162 µM) of the same compound?
Answer: 0.427

Question: And the relative viability (NCI-H460; first compound 0.1 µM)?
Answer: 0.41

Question: What about the relative viability (NCI-H2405; first compound 0.001 µM) of the same compound?
Answer: 0.684

Question: What about the relative viability (NCI-H2405; first compound 0.003162 µM) of the same compound?
Answer: 0.628

Question: And the relative viability (NCI-H2405; first compound 0.01 µM)?
Answer: 0.665

Question: And the relative viability (NCI-H2405; first compound 0.03162 µM)?
Answer: 0.557

Question: What about the relative viability (NCI-H2405; first compound 0.1 µM) of the same compound?
Answer: 0.399

Question: What about the relative viability (NCI-H1755; first compound 0.001 µM) of the same compound?
Answer: 0.412

Question: What about the relative viability (NCI-H1755; first compound 0.003162 µM) of the same compound?
Answer: 0.499

Question: And the relative viability (NCI-H1755; first compound 0.01 µM)?
Answer: 0.399

Question: What about the relative viability (NCI-H1755; first compound 0.03162 µM) of the same compound?
Answer: 0.352

Question: And the relative viability (NCI-H1755; first compound 0.1 µM)?
Answer: 0.4

Question: And the relative viability (RERF-LC-KJ; first compound 0.001 µM)?
Answer: 0.834

Question: What about the relative viability (RERF-LC-KJ; first compound 0.003162 µM) of the same compound?
Answer: 1.02

Question: And the relative viability (RERF-LC-KJ; first compound 0.01 µM)?
Answer: 1.16

Question: And the relative viability (RERF-LC-KJ; first compound 0.03162 µM)?
Answer: 0.598

Question: What about the relative viability (RERF-LC-KJ; first compound 0.1 µM) of the same compound?
Answer: 0.427

Question: And the relative viability (SW 900; first compound 0.003162 µM)?
Answer: 0.479

Question: And the relative viability (SW 900; first compound 0.01 µM)?
Answer: 0.575

Question: And the relative viability (SW 900; first compound 0.03162 µM)?
Answer: 0.369

Question: What about the relative viability (SW 900; first compound 0.1 µM) of the same compound?
Answer: 0.304

Question: What about the relative viability (NCI-H1734; first compound 0.001 µM) of the same compound?
Answer: 0.498

Question: And the relative viability (NCI-H1734; first compound 0.003162 µM)?
Answer: 0.617

Question: What about the relative viability (NCI-H1734; first compound 0.01 µM) of the same compound?
Answer: 0.558

Question: And the relative viability (NCI-H1734; first compound 0.03162 µM)?
Answer: 0.387

Question: What about the relative viability (NCI-H1734; first compound 0.1 µM) of the same compound?
Answer: 0.219

Question: What about the relative viability (LU99A; first compound 0.001 µM) of the same compound?
Answer: 0.247

Question: And the relative viability (LU99A; first compound 0.003162 µM)?
Answer: 0.513

Question: And the relative viability (LU99A; first compound 0.01 µM)?
Answer: 0.498

Question: And the relative viability (LU99A; first compound 0.03162 µM)?
Answer: 0.33

Question: And the relative viability (LU99A; first compound 0.1 µM)?
Answer: 0.199

Question: What about the relative viability (ChaGo-K-1; first compound 0.001 µM) of the same compound?
Answer: 0.884

Question: What about the relative viability (ChaGo-K-1; first compound 0.003162 µM) of the same compound?
Answer: 0.975

Question: What about the relative viability (ChaGo-K-1; first compound 0.01 µM) of the same compound?
Answer: 0.853

Question: And the relative viability (ChaGo-K-1; first compound 0.03162 µM)?
Answer: 0.638

Question: And the relative viability (ChaGo-K-1; first compound 0.1 µM)?
Answer: 0.344

Question: What about the relative viability (EMC-BAC-2; first compound 0.001 µM) of the same compound?
Answer: 1.05

Question: What about the relative viability (EMC-BAC-2; first compound 0.003162 µM) of the same compound?
Answer: 1.02

Question: And the relative viability (EMC-BAC-2; first compound 0.01 µM)?
Answer: 1.14

Question: And the relative viability (EMC-BAC-2; first compound 0.03162 µM)?
Answer: 1.02

Question: And the relative viability (EMC-BAC-2; first compound 0.1 µM)?
Answer: 1.03

Question: And the relative viability (HCC-44; first compound 0.001 µM)?
Answer: 0.969

Question: And the relative viability (HCC-44; first compound 0.003162 µM)?
Answer: 1

Question: And the relative viability (HCC-44; first compound 0.01 µM)?
Answer: 0.996

Question: And the relative viability (HCC-44; first compound 0.1 µM)?
Answer: 0.923

Question: And the relative viability (NCI-H596; first compound 0.001 µM)?
Answer: 1.11

Question: And the relative viability (NCI-H596; first compound 0.003162 µM)?
Answer: 1.02

Question: What about the relative viability (NCI-H596; first compound 0.01 µM) of the same compound?
Answer: 1.11

Question: What about the relative viability (NCI-H596; first compound 0.03162 µM) of the same compound?
Answer: 1.13

Question: And the relative viability (NCI-H596; first compound 0.1 µM)?
Answer: 1.01

Question: And the relative viability (NCI-H1792; first compound 0.001 µM)?
Answer: 0.483

Question: What about the relative viability (NCI-H1792; first compound 0.003162 µM) of the same compound?
Answer: 0.638

Question: And the relative viability (NCI-H1792; first compound 0.01 µM)?
Answer: 0.467

Question: What about the relative viability (NCI-H1792; first compound 0.03162 µM) of the same compound?
Answer: 0.385

Question: And the relative viability (NCI-H1792; first compound 0.1 µM)?
Answer: 0.263

Question: And the relative viability (NCI-H1993; first compound 0.001 µM)?
Answer: 0.875

Question: And the relative viability (NCI-H1993; first compound 0.003162 µM)?
Answer: 0.803

Question: What about the relative viability (NCI-H1993; first compound 0.01 µM) of the same compound?
Answer: 0.819

Question: What about the relative viability (NCI-H1993; first compound 0.03162 µM) of the same compound?
Answer: 0.754

Question: And the relative viability (NCI-H1993; first compound 0.1 µM)?
Answer: 0.559

Question: And the relative viability (NCI-H522; first compound 0.01 µM)?
Answer: 0.861

Question: What about the relative viability (NCI-H522; first compound 0.03162 µM) of the same compound?
Answer: 0.767

Question: What about the relative viability (NCI-H522; first compound 0.1 µM) of the same compound?
Answer: 0.649

Question: What about the relative viability (EKVX; first compound 0.001 µM) of the same compound?
Answer: 0.599

Question: What about the relative viability (EKVX; first compound 0.003162 µM) of the same compound?
Answer: 0.654

Question: And the relative viability (EKVX; first compound 0.01 µM)?
Answer: 0.729

Question: And the relative viability (EKVX; first compound 0.03162 µM)?
Answer: 0.688

Question: What about the relative viability (EKVX; first compound 0.1 µM) of the same compound?
Answer: 0.555

Question: What about the relative viability (HARA; first compound 0.001 µM) of the same compound?
Answer: 0.329

Question: And the relative viability (HARA; first compound 0.003162 µM)?
Answer: 0.208

Question: And the relative viability (HARA; first compound 0.01 µM)?
Answer: 0.536

Question: What about the relative viability (HARA; first compound 0.03162 µM) of the same compound?
Answer: 0.197

Question: And the relative viability (HARA; first compound 0.1 µM)?
Answer: 0.245

— the supplement of paper PMC10307832
